Common to all, as to format: cell-based, human
Assay [1] relates to STAT3. Description: STAT3 dimerization (STAT3c non-reducing PAGE, HA/FLAG co-immunoprecipitation) in H1299 cells. To be noted: 20 μM. The source says:
To eliminate the possibility that inS3-54 works by off-targeting to the SH2 domain, we tested if inS3-54 inhibits STAT3 dimerization using FLAG-STAT3c, which forms spontaneous homo-dimers via formation of intermolecular disulfide bond.
However, inS3-54 had no effect on production of dimeric STAT3c separated using non-reducing SDS-PAGE or non-denaturing PAGE (FIG. 6B) while S3I-201, a STAT3 inhibitor that binds to the SH2 domain, inhibited STAT3c dimerization (FIG. 6B). To confirm this observation, we performed a co-immunoprecipitation analysis of HA and FLAG-tagged STAT3.

The test system of assay [2] is A549 and MDA-MB-231 cells. Description: Luminescence-based glutathione alkylation assay (GSH-Glo). The following applies: 20 μM inS3-54 48 hours, 15 mM iodoacetamide 30 minutes. The text has this:
FIG. 5. Effect of inS3-54 glutathione level. […] (***p<0.001).
To further eliminate the possibility that inS3-54 has alkylating activity, we performed luminescence-based glutathione alkylation assay.

The subject of assay [3] is STAT3. Kind of assay: STAT3-dependent luciferase reporter assay in MDA-MB-231-STAT3 stable cells. To be noted: 20 μM; for activity at 20 µM: Homo sapiens. The gist of the method:
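MDA-MB-231 cells stably carrying a STAT3-dependent luciferase reporter, exposed to compounds at 20 μM for 48 h (0.1% v/v DMSO final), then luciferase activity measured. Concentration-response treatments ran 72 h; STAT3-independent control used H1299 cells transiently transfected with p27-promoter luciferase, 48 h.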
(A reporter such as luciferase makes a cellular process visible.)

The mark [4] stands for this setting: mean of experiments, relative to DMSO.

Like-named read-outs stand apart in the source and are kept apart here.

For `Cc1ccc(S(=O)(=O)OCC(=O)Nc2ccc(C(=O)O)c(O)c2)cc1` [Compound S3I-201, reference compound], the “production of dimeric STAT3c” value in assay [1] (24 hrs, non-reducing SDS-PAGE or non-denaturing PAGE) is on record as “inhibited”. The “co-immunoprecipitation between HA- and FLAG-tagged STAT3” value in assay [1] (H1299 cells) is reported as “inhibited”.
Turning to `NC(=O)CI` [iodoacetamide, reference compound], the glutathione level result in assay [2] is given as “significantly reduced”.
As for `CCOC(=O)C1=C(C)N(c2ccc(OCC)cc2)C(=O)/C1=C\c1ccc([N+](=O)[O-])cc1` [Compound A79], the “inhibition of luciferase expression compared to DMSO vehicle control” value in assay [3] (significant = p value less than 0.05) was “significantly inhibited”. Further, the activity at 20 µM in assay [3] (experiment 1, relative to DMSO, read-out: Rel. luciferase activity (%) 1) stood at 10.2%; in assay [3] (experiment 2, relative to DMSO, read-out: Rel. luciferase activity (%) 2) it was 44.8%; in assay [3] (experiment 3, relative to DMSO, read-out: Rel. luciferase activity (%) 3), 55.6%; in assay [3] (mean of experiments, relative to DMSO, read-out: Rel. luciferase activity (%) Mean), 36.9%.
In the case of `COc1ccc(C=C2C=C(c3ccccc3)N(c3ccc(N(C)C)cc3)C2=O)cc1` [Compound A78], in assay [3] (experiment 1, relative to DMSO), the “Rel. luciferase activity (%) 1” value was 71.7%. Besides, the “Rel. luciferase activity (%) 2” value in assay [3] (experiment 2, relative to DMSO) is 107.9%. Besides, the “Rel. luciferase activity (%) 3” value in assay [3] (experiment 3, relative to DMSO) is 61.0%. In addition, in assay [3] (setting [4]), the “Rel. luciferase activity (%) Mean” value came to 80.2%.
For the molecule `O=C1C(=Cc2ccc(Cl)cc2)C=C(c2ccccc2)N1c1cccc(Cl)c1` [Compound A76], the “Rel. luciferase activity (%) 1” value in assay [3] (experiment 1, relative to DMSO) was 60.0%. In addition, the “Rel. luciferase activity (%) 2” value in assay [3] (experiment 2, relative to DMSO) was 151.4%. Also, the “Rel. luciferase activity (%) 3” value in assay [3] (experiment 3, relative to DMSO) is 104.0%. Moreover, the “Rel. luciferase activity (%) Mean” value in assay [3] (setting [4]) was determined as 105.1%.
Regarding `COC(=O)c1cccc(N2C(=O)C(=Cc3ccc(Cl)cc3)C=C2c2ccccc2)c1` [Compound A19], in assay [3] (experiment 1, relative to DMSO), the “Rel. luciferase activity (%) 1” value worked out at 45.7%. For the same molecule, the “Rel. luciferase activity (%) 2” value in assay [3] (experiment 2, relative to DMSO) is on record as 101.8%. The “Rel. luciferase activity (%) 3” value in assay [3] (experiment 3, relative to DMSO) was 60.1%. The “Rel. luciferase activity (%) Mean” value in assay [3] (setting [4]) amounted to 69.2%.
Take `O=C1C(=Cc2ccc(-c3ccc([N+](=O)[O-])cc3)o2)C=C(c2ccccc2)N1Cc1ccccc1` [Compound A64]: in assay [3] (experiment 1, relative to DMSO), the “Rel. luciferase activity (%) 1” value is listed as 79.8%. For the same molecule, the “Rel. luciferase activity (%) 2” value in assay [3] (experiment 2, relative to DMSO) is 109.6%. The “Rel. luciferase activity (%) 3” value in assay [3] (experiment 3, relative to DMSO) is 49.0%. Also, in assay [3] (setting [4]), the “Rel. luciferase activity (%) Mean” value came out at 79.5%.
`CC(C)(C)c1ccc(N2C(=O)C(=Cc3ccc(Cl)cc3)C=C2c2ccccc2)cc1` [Compound A21]: in assay [3] (experiment 1, relative to DMSO), the “Rel. luciferase activity (%) 1” value is recorded as 158.0%. Also, the “Rel. luciferase activity (%) 2” value in assay [3] (experiment 2, relative to DMSO) was 174.7%. For the same molecule, the “Rel. luciferase activity (%) 3” value in assay [3] (experiment 3, relative to DMSO) is 159.1%. Also, the “Rel. luciferase activity (%) Mean” value in assay [3] (setting [4]) is recorded as 163.9%.

Source of the values: US9382204B2, “Inhibitors targeting the DNA-binding domain of human STAT3 for treatment of metastatic cancers” (Indiana University Research and Technology Corporation, priority 2013, dated 2016).
